# Laboratory results as given in patent US4616008A, “Antibacterial solid composition for oral administration” (Takeda Chemical Industries, Ltd., priority 1984, dated 1986).
# Counter-ions that a name gives are not always drawn.
# Experiment: Test Example 3: Determination of oil/water partition coefficient (n-octanol / Sorensen buffer pH 7.0, HPLC)
# Assay type: physicochemical
# Conditions: dihydrochloride
# Method: A 10-ml portion, of a solution prepared by dissolving the dihydrochloride of Compound No. 1 in Sorensen buffer solution (pH 7.0) to a concentration of 100 μg/ml is placed in a 50-ml centrifuagl tube, followed by addition of 10 ml of n-octanol. After shaking at 25° C. for 10 minutes, the mixture is centrifuged and the concentration of the cephalosporin compound in the aqueous layer is determined by high performance liquid chromatography [column: μ-Bondapak C-18 produced by Waters Associates, Canada; eluent: 0.05 M ammonium sulfate solution+acetonitrile+acetic acid (400:200:1 v/v)]. A value of 0.45 μg/ml is obtained. From this value, the oil/water partition coefficient is calculated as follows: [formula]
structure (smiles),measurement,setting,value
"CC(OC(=O)OC1CCCCC1)OC(=O)C1=C(CSc2nnnn2CCN(C)C)CS[C@@H]2[C@H](NC(=O)Cc3csc(N)n3)C(=O)N12 (stereo partly drawn) [Compound No. 1, 1-(cyclohexyloxycarbonyloxy)ethyl 7β-[2-(2-aminothiazol-4-yl)acetamido]-3-[[[1-(2-dimethylaminoethyl-1H-tetrazol-5-yl]thio]methyl]ceph-3-em-4-carboxylatedihydrochloride]",concentration of the cephalosporin compound in the aqueous layer,"initial 100 μg/ml in Sorensen buffer pH 7.0, equal volume n-octanol, 25° C., 10 minutes shaking",450 ng/mL
same,logD,"n-octanol/Sorensen buffer pH 7.0, 25° C., calculated from aqueous concentration",2.34
